Measurements published in PubChem BioAssay (NCI).
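Step 1: Grow cells in 96-well plates. Step 2: Expose to compound for 48 hours at 5 concentrations. Step 3: Interpolate endpoints linearly; if unreached, use highest concentration. GI50 = concentration required for 50% inhibition of growth. TGI is the concentration that stops growth completely.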

Key:
Assay in all cases: growth of human tumour cells (NCI), 48 h
[1] = system: KM12 colon
[2] = system: UACC-62 melanoma
[3] = system: OVCAR-8 ovarian
[4] = system: SF-539 CNS
[5] = system: LOX IMVI melanoma
[6] = system: NCI-H522 lung
[7] = system: SF-295 CNS
[8] = system: NCI-H460 lung
[9] = system: DU-145 prostate
[10] = system: SNB-75 CNS

## COc1ccc2c3c(Nc4cccc(/C(C)=N\O)c4)[nH]c4ccccc4c-3c(N=O)c2c1
[1]
  GI50: 28.1 µM
  TGI: > 100 µM
[2]
  GI50: 43.9 µM
  TGI: > 100 µM
[3]
  GI50: 25.8 µM
  TGI: > 100 µM
[4]
  GI50: > 100 µM
  TGI: > 100 µM
[5]
  GI50: 29.1 µM
  TGI: 67.7 µM
[6]
  GI50: 46.2 µM
  TGI: > 100 µM
[7]
  GI50: > 100 µM
  TGI: > 100 µM
[8]
  GI50: 33.6 µM
  TGI: > 100 µM
[9]
  GI50: 16 µM
  TGI: 75.1 µM

## COc1cc(C2c3cc4c(cc3[C@@H](Nc3cccc(CO)c3)C3COC(=O)[C@H]23)OCO4)cc(OC)c1O (some centres undefined)
[1]
  TGI: 6.67 µM
[10]
  TGI: > 24.7 µM
[2]
  TGI: 2.76 µM
[3]
  TGI: 16.2 µM
[4]
  TGI: 1.99 µM
[5]
  TGI: 3.74 µM
[6]
  TGI: 3.52 µM
[7]
  TGI: 5.05 µM
[8]
  TGI: 1.75 µM

## CC(CC(N)C(=O)O)C(=O)O (centres undefined)
[1]
  TGI: > 100 µM
[2]
  TGI: > 100 µM
[3]
  TGI: > 100 µM
[5]
  TGI: > 100 µM
[6]
  TGI: > 100 µM
[7]
  TGI: > 100 µM
[8]
  TGI: > 100 µM
[9]
  TGI: > 100 µM

## COc1cc(OC)cc(-c2ccc(-c3ccc(C(=N)N)cn3)o2)c1
[1]
  GI50: 1.78 µM
  TGI: 3.34 µM
[10]
  GI50: 1.48 µM
  TGI: 2.85 µM
[2]
  GI50: 1.77 µM
  TGI: 3.29 µM
[4]
  GI50: 1.55 µM
  TGI: 2.9 µM
[7]
  GI50: 1.86 µM
  TGI: 3.46 µM
[8]
  GI50: 1.63 µM
  TGI: 3.16 µM
[9]
  GI50: 1.76 µM
  TGI: 3.25 µM

## OCC1COc2cc(Cl)c(Cl)cc2O1 (centres undefined)
[1]
  TGI: > 10 µM
[10]
  TGI: > 10 µM
[2]
  TGI: > 10 µM
[3]
  TGI: > 10 µM
[4]
  TGI: > 10 µM
[5]
  TGI: > 10 µM
[6]
  TGI: > 10 µM
[7]
  TGI: > 10 µM
[8]
  TGI: > 10 µM
[9]
  TGI: > 10 µM

## CSCC[C@@H]1C(=O)N(C)[C@H](C(C)(C)C)N1C(=O)c1ccccc1
[1]
  TGI: > 100 µM
[10]
  TGI: > 100 µM
[2]
  TGI: > 100 µM
[3]
  TGI: > 100 µM
[4]
  TGI: > 100 µM
[5]
  TGI: > 100 µM
[6]
  TGI: > 100 µM
[7]
  TGI: > 100 µM
[8]
  TGI: > 100 µM

## COc1nc2cccc(C(O)c3ccccc3)c2nc1-c1ccccc1 (centres undefined)
[1]
  TGI: > 100 µM
[10]
  TGI: > 100 µM
[2]
  TGI: 23.9 µM
[3]
  TGI: > 100 µM
[4]
  TGI: 8.23 µM
[5]
  TGI: 22 µM
[6]
  TGI: 27.2 µM
[7]
  TGI: 17 µM
[8]
  TGI: 24.8 µM
[9]
  TGI: 26.9 µM

## CC1(C)[C@@H]2CC[C@]1(C)[C@H](OC(=O)/C=C/c1ccccc1)C2
[1]
  TGI: 42.6 µM
[10]
  TGI: 33.3 µM
[2]
  TGI: 57.5 µM
[3]
  TGI: 36.5 µM
[4]
  TGI: 35.9 µM
[5]
  TGI: 37.1 µM
[6]
  TGI: 28.6 µM
[7]
  TGI: 36.3 µM
[8]
  TGI: > 100 µM
[9]
  TGI: 47.9 µM

## COc1cc(C(=O)O[C@H](C(=O)NCCCNC(=O)[C@@H](OC(=O)c2cc(OC)cc3c(C)cccc23)[C@]2(C)CO2)[C@]2(C)CO2)c2cccc(C)c2c1
[1]
  GI50: 0.101 µM
  TGI: 0.607 µM
[10]
  TGI: 0.381 µM
[2]
  GI50: 0.962 µM
  TGI: 2.14 µM
[4]
  GI50: < 0.0268 µM
  TGI: 0.138 µM
[5]
  GI50: < 0.01 µM
  TGI: < 0.01 µM
[6]
  GI50: < 0.01 µM
  TGI: < 0.01 µM
[7]
  TGI: 0.562 µM
[8]
  GI50: < 0.019 µM
  TGI: 0.902 µM
[9]
  GI50: < 0.01 µM
  TGI: < 0.01 µM
